Source: PubChem BioAssay AID179 (DTP/NCI, 2004)
Activity calls are given as the source filed them.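 How the source made its calls: active means compounds giving half or more protection of infected cells from virus-caused growth loss, again on retest; inactive means the rest.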

System: CEM cells HIV-1 protection, formazan growth assay
Test: NCI AIDS Antiviral Assay
Conditions: for IC50: measured here: growth of uninfected CEM cells
How it was run: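 Protection of CEM cells against HIV-1 measured as cell growth via soluble formazan read-out, with five concentrations tested on both infected and uninfected cells; failure to protect may reflect toxicity.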

| Compound | EC50 [µM] | IC50 [µM] | outcome |
| --- | --- | --- | --- |
| Nc1nnc2nc(CC(=O)c3cccc([N+](=O)[O-])c3)/c(=C/C(=O)c3cccc([N+](=O)[O-])c3)n12 | > 16.2 | > 16.2 | – |
| Cc1cc(Cc2cc(C)c(O)c(Br)c2)cc(Br)c1O | > 200 | 1.58 | – |
| COC(=O)N/N=C(\C)c1sc(-c2nc(C)c(/C(C)=N/NC(=O)OC)s2)nc1C | > 32.4 | > 32.4 | – |
| Cc1ccc(S(=O)Cc2ccc(C(=O)O)cc2[N+](=O)[O-])cc1 (stereo not drawn) | – | – | inactive |
| Cc1cc2nc3[nH]c4ccccc4c3nc2cc1C | > 20.9 | > 20.9 | – |
| Clc1ccccc1C1=NN(c2ccccc2)C2c3cc(Br)ccc3OCC12 (stereo not drawn) | > 81.3 | > 81.3 | – |
| CC(=O)Nc1ccc(/C=C2/NC(=S)N(/C=C3\C(=O)Oc4ccccc4C3=O)C2=O)cc1 | > 200 | 155 | – |
| CNC(=S)/C(=N\Nc1nc[nH]c1C(N)=O)C(N)=S | > 2 | 0.955 | – |
| O=C(O)C1(C(O)c2ccccc2)SCCCS1 (stereo not drawn) | > 200 | > 200 | – |
| CCNC(=O)OCc1cnc(C)c(OC(=O)NCC)c1COC(=O)NCC | > 200 | 31.6 | – |
| O=S1Nc2c(Cl)cc(Cl)c(Cl)c2S1 (stereo not drawn) | > 129 | > 129 | – |
| Cc1ccc(S(=O)(=O)C(CC(NC=O)S(=O)(=O)c2ccc(C)cc2)NC=O)cc1 (stereo not drawn) | – | – | inactive |
| CS(=O)(=O)OCC1CCCCCCCCCCC12SCCCS2 (stereo not drawn) | > 200 | > 200 | – |
| CC(C)c1oc2ccccc2c1C(=O)c1ccc(O)cc1 | > 148 | 13.2 | – |
| CCc1cccc(CC)c1N1C(=O)C2=C(SCCCS2)C1=O | > 44.7 | 24 | – |
| CCN(CC)CC1CCCCN1CC(=O)N1c2ccccc2NC(=O)c2ccccc21 (stereo not drawn) | > 200 | > 200 | – |
| Cc1cc(NCCCCCCCNc2cc(C)nc3cc([N+](=O)[O-])ccc23)c2ccc([N+](=O)[O-])cc2n1 | – | – | inactive |
| CC(C)(C)C1CCC2(CC1)c1[nH]c3ccccc3c1C1(CCC(C(C)(C)C)CC1)c1[nH]c3ccccc3c12 (stereo not drawn) | > 7.41 | > 7.41 | – |
| COC1OCC(SC(=O)c2ccccc2)C(O)C1O (stereo not drawn) | > 200 | 141 | – |
| CCCC(C)C(=Nc1ccc(Cl)c(Cl)c1)N(C)C (stereo not drawn) | > 200 | 28.2 | – |
| CC(=O)O[C@@H]1CC[C@@]2(C)C(=O)C34C[C@@]5(C)C([C@@H](C)CCCC(C)C)CCC5(C)[C@](O)(O3)C(=O)[C@H]4C2C1(C)C (stereo partly drawn) | > 18.6 | > 18.6 | – |
| CN1CNC2C(=O)CCC2c2ccccc21 (stereo not drawn) | > 1150 | 676 | – |

| Compound | EC50 [µM] | IC50 [µM] | outcome |
| --- | --- | --- | --- |
| COc1ccccc1NC(=O)C(=O)C(C#N)CC(C)(C)C=O (stereo not drawn) | > 85.1 | > 85.1 | – |
| CN(NC(=O)CCCl)C1=NCCN1 | > 200 | > 200 | – |
| CC(C)(CO)CNc1cc(=O)[nH]c(N)n1 | > 200 | > 200 | – |
| N#Cc1cccc(CSc2ncnc3nc[nH]c23)c1 | > 200 | 81.3 | – |
| OC(CN1CCC(c2ccccc2)CC1)c1ccc(Br)cc1 (stereo not drawn) | > 18.2 | > 18.2 | – |
| O=C(CC1(O)C(=O)Nc2ccccc21)c1ccncc1 (stereo not drawn) | – | – | inactive |
| OCCCCCCCCCCCOc1ccc(C2OCC3(CC=CCC3)CO2)cc1 (stereo not drawn) | > 200 | 36.3 | – |
| Cc1cccc(NC(=S)Nc2ccc([N+](=O)[O-])cc2)n1 | > 200 | > 200 | – |
| O=C(C[n+]1ccccc1)NNC(=O)/C(=C/c1ccc2c(c1)OCO2)NC(=O)c1ccccc1 | > 7.76 | > 7.76 | – |
| CC(C)=CCN1CC(C)Cn2c(=S)[nH]c3cccc1c32 (stereo not drawn) | 1.17 | > 100 | – |
| C/C(=N\NC(=S)NNC(=S)N(C)c1ccccc1)c1ccccn1 | > 52.5 | 0.427 | – |
| O=C1C=C(NCCc2ccccc2)c2ccccc2C1=O | > 36.3 | 25.1 | – |
| N#Cc1ccc(-c2nc(C#N)c(N)o2)cc1 | 135 | > 200 | – |
| CN(NC(=O)c1cccs1)C1=NCCCN1 | > 200 | > 200 | – |
| CCOC(=O)C1=C(C)OC(=O)[C@@]2(OC)C=C(Cl)[C@@]12C | > 200 | > 200 | – |
| CCOP(=O)(OCC)/C(C#N)=C/c1coc2cc(C)cc(C)c2c1=O | > 200 | > 200 | – |
| O=C1c2ccccc2-c2cc(N3C(=O)C=CC3=O)ccc21 | > 200 | 17 | – |
| O=C1Cn2nc(C(=O)c3ccccc3C#Cc3ccccc3)c(-c3ccccc3)c2-c2ccccc21 | > 38.9 | > 38.9 | – |
| CCCCCCN(CCCCCC)/N=C/c1c2c(O)c3c(O)c(C)c4c(c3c1O)C(=O)C(C)(O/C=C/C(OC)C(C)C(OC(C)=O)C(C)C(O)C(C)C(O)C(C)/C=C/C=C(C)C(=O)N2)O4 (stereo not drawn) | – | – | inactive |
| COc1cc2c(cc1OC)C1=Cc3cc(OC)c(OC)cc3C(C)N1C=C2 (stereo not drawn) | > 355 | 29.5 | – |
| O=C(CCCN1CCc2[nH]c3cc(F)ccc3c2C1)c1ccc(F)cc1 | > 200 | 24.5 | – |
| Cc1c2ccc(Cl)cc2nc2ccc(OCCNC(=O)[C@@H](N)CCCN=C(N)N)cc12 | > 200 | 30.9 | – |
